Measurements: patent publication US20180045675A1, “SINGLE-CELL INTRACELLULAR NANO-PH PROBES” (The Regents of the University of California, priority 2015, published 2018)

Tested on: MDA-MB-231 cells
Assay: real-time intracellular pH measurement with nano-pH probe during chloride channel blocker exposure
Type: cell-based, human
Conditions: single MDA-MB-231 cells
From the text: Sensing setup. To carry out analytical characterization experiments of chitosan-modified nanopipette sensors, a two-electrode setup connected to a potentiostat (1030C, CH Instruments Inc.) was used for sensing. A 125 μm platinum wire (Goodfellow Corporation) placed into nanopipettes filled with electrolyte served as the working electrode while a pseudo Ag/AgCl electrode placed in bulk solution (PBS or cell media) served as the reference electrode. Linear sweep voltammetry was utilized for all in vitro measurements with a scan rate of 0.1 V/sec.
Intracellular measurements were performed by combining the potentiostat and scanning ion conductance microscope (SICM) with a low-noise mechanical switch. The SICM setup consisted of an Axopatch 200B amplifier (Molecular Devices) for current feedback measurements, a MP-285 motorized micromanipulator (Sutter Instrument) for coarse positioning of the nano-pH probe, a piezo stage (NanoCube, Physik Instrumente) for fine positioning and insertion of the nano-pH probe sensors, and a programmable interface for hardware control of the setup. This system is run by custom software written in LabVIEW (National Instruments). All experiments with cells were conducted on an inverted fluorescence microscope (Olympus IX 70) equipped with an eyepiece camera (Dino-Eye, Big C).
Cell culture. […]
Chitosan-modified nanopipettes were inserted to individual cells using a customized scanning ion conductance microscope which detects current feedback for positioning the nanopipettes. […] After the insertion of the nano-pH probe into a cell, linear sweep voltammograms were recorded and the current-responses at a bias potential of 0.6 V were used to calculate the intracellular pH levels of single cells.
The present nano-pH probe can be used to monitor intracellular pH changes during drug therapy. […] Conventionally, the change in pH has been measured indirectly by introduction of fluorescent dye (BCECF-AM)^47,48. […] The measured pH levels stabilized by 4 min post NPPB introduction. […]

## O=C(O)c1cc([N+](=O)[O-])ccc1NCCCc1ccccc1 [NPPB, 5-nitro-2-(3-phenylpropylamino)-benzoate]
100 μM NPPB
  time by which measured pH levels stabilized post NPPB introduction: ≤ 4 min
  time within which intracellular pH level dropped significantly after introduction of NPPB: ≤ 2 min
100 μM NPPB in cell media, readings every 21 sec for 7 min, baseline around 7
  lowest intracellular pH level after introduction of NPPB: 2.5
